Source: patent US12247227B2, “Methods relating to intestinal organ-on-a-chip” (PRESIDENT AND FELLOWS OF HARVARD COLLEGE, priority 2016, dated 2025)

How the values were obtained:
[1] = tested on: enteroid fragments (primary intestinal epithelial cells); test: Epithelial cell recovery and on-chip seeding of enteroid fragments generated with or without ROCK inhibitor; format: cell-based, human; conditions: ROCK inhibitor present during fragment isolation and seeding, images 24 h post seeding (FIG. 15)
Description: Representative images showing device seeded with enteroid fragments generated in the absence (−ROCK inhibitor) or presence (+ROCK inhibitor) were acquired 24 h post seeding. Equal cell seeding density and time was used for both of the conditions tested.
Prior to the establishment of primary cell culture in organ-on-chip microfluidic device, the hydrophobic PDMS surface is activated by oxygen plasma treatment and aminized with (3-aminopropyl)[…] silane (APTMS, SIGMA 281778). This surface functionalization allows for an improved cell attachment and facilitates long-term culture of intestinal stem cells and their progeny. Next ECM coating solution composed of 1% Matrigel (BD Corning, 356231) and 200 ug/ml Collagen I (BD Corning 3.36 mg/mL; 354226) is introduced in both the upper and the lower microfluidic channel and device is placed in a humidified 37° C. incubator for the minimum of 2 hours. Then human intestinal microvascular endothelial cells, e.g., purchased from ScienCell (Catalog #2900), are seeded on the bottom side of the porous stretchable PDMS membrane that separates two parallel microchannels of the organ-on-chip device. […]

[2] = tested on: small intestine-on-chip (primary human intestinal epithelium with or without HIMEC endothelium)
Excerpt: As used herein, “differentially permeable”, e.g., in reference to an intestinal barrier, refers to the intestinal barrier displaying a resistance to the passage of certain molecules as compared to monolayers of, e.g., endothelial cells or undifferentiated intestinal epithelial cells. […] Such assays are described in the Examples herein in detail. Briefly, the apical side of the intestinal barrier is contacted with one or more tracer molecules and the concentration of the tracer later found on the basal side of the intestinal barrier.
• PROCEDURE. […]
Intestinal functional assessment and cytokine measurements. […] The concentration of dye that diffused through the membrane into endothelial channel was measured in the effluent, and apparent paracellular permeability (Papp) was calculated using the following formula:
[formula] where Vrec is volume receiver (endothelial compartment), Crec concentration receiver, A the seeded area and Cdon concentration donor (epithelial compartment). Cytokines released in the medium were quantified using U-PLEX Biomarker Assays for human Fractalkine, GM-CSF, IFN-γ, IL-1α, IL-1β, IL-6, IL-8, and IL-10 (Mesoscale Discovery).

Optimal Papp (apparent permeability) for small intestine-on-chip [2] [×10⁻⁶ cm/s]	Papp [2]	Compound	epithelial cell recovery and on-chip seeding [1]
		C[C@@H](N)[C@H]1CC[C@H](C(=O)Nc2ccncc2)CC1 [ROCK inhibitor, Y-27632]	Improved epithelial cells recovery and on-chip seeding
~1	1-2×10^−6	Lucifer Yellow	
